Results on 16 compounds are retold here after ChEMBL document CHEMBL1153157, “Discovery of benzimidazole-diamide finger loop (Thumb Pocket I) allosteric inhibitors of HCV NS5B polymerase: Implementing parallel synthesis for rapid linker optimization” (Bioorg Med Chem Lett, 2010).

Data set [1] has as its system Hepatitis C virus. The data set is described as follows: Inhibition of N-terminal hexahistidine tagged HCV 1b NS5B polymerase expressed in baculovirus infected Sf21 cells after 90 mins by SPA. Set-up: species or system Hepatitis C virus subtype 1b. The note with it: Sf21, 1.5 h.
For data set [2], the system named is Hepatitis C virus. The data set is described as follows: Antiviral activity against Hepatitis C virus subtype 1b by cell-based replicon assay. The following applies: genotype 1b. In kind it is functional, organism-based, Hepacivirus hominis. (Replicon systems follow genome replication, usually without infectious particles.)
A short description of data set [3]: Lipophilicity, log D at pH 7.4. In kind it is physicochemical. The note with it: buffer.
Data set [4] in a line: Aqueous solubility at pH 7.2. The format is physicochemical. The following applies: buffer.
The subject of data set [5] is Liver microsomes. The data set is described as follows: (§1) Half life in human liver microsomes at 10 uM. In kind it is ADME, Microsome. The note with it: microsomes, 10 µM. In general terms: Microsomes from liver hold many membrane-bound enzymes, among them those of drug oxidation.
Data set [6] concerns the target T1, Cytochrome P450 1A2 (Homo sapiens, UniProt P05177).
T1 sequence (P05177 whole entry): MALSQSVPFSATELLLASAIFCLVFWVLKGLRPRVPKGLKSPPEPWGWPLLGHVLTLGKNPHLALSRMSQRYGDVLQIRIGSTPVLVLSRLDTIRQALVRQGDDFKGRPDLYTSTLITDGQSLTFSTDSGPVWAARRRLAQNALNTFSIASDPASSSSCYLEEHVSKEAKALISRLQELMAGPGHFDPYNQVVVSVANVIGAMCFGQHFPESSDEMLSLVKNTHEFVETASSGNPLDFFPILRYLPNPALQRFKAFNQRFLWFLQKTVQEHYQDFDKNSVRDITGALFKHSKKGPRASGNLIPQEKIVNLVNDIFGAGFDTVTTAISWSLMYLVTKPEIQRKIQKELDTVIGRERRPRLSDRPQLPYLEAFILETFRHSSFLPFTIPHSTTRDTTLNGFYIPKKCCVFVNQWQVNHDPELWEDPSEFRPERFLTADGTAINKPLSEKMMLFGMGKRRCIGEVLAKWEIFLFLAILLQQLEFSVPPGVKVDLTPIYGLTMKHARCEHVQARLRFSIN
The data set is described as follows: Inhibition of human liver CYP1A2. The format is ADME.

Data set [7] addresses Cytochrome P450 2C9 (Homo sapiens, UniProt P11712). The data set is described as follows: Inhibition of human liver CYP2C9. In kind it is ADME.
Data set [8] deals with Cytochrome P450 2C19 (Homo sapiens, UniProt P33261). The data set is described as follows: Inhibition of human liver CYP2C19. The format is ADME.
The target in data set [9] is Cytochrome P450 2D6 (Homo sapiens, UniProt P10635). The data set is described as follows: Inhibition of human liver CYP2D6. In kind it is ADME.
Data set [10] addresses Cytochrome P450 3A4 (Homo sapiens, UniProt P08684). The data set is described as follows: Inhibition of human liver CYP3A4. In kind it is ADME.
For data set [11], the system named is Enterovirus C. The data set is described as follows: Inhibition of Poliovirus RNA dependent RNA polymerase expressed in Escherichia coli BL21 (DE3) up to 200 uM after 90 mins by SPA.
The species entered for data set [12] is Bos taurus. The data set is described as follows: Inhibition of calf thymus DNA-dependent RNA polymerase up to 200 uM after 120 mins.
Data set [13] is described as follows: as §1. In kind it is ADME, Microsome. The following applies: liver microsomes.

≈ marks a conversion by molar mass, not a printed value. Calls of active or inactive are those of the source. The rule behind the calls is not given here.

Chain of Cytochrome P450 2C19 (P33261 whole entry): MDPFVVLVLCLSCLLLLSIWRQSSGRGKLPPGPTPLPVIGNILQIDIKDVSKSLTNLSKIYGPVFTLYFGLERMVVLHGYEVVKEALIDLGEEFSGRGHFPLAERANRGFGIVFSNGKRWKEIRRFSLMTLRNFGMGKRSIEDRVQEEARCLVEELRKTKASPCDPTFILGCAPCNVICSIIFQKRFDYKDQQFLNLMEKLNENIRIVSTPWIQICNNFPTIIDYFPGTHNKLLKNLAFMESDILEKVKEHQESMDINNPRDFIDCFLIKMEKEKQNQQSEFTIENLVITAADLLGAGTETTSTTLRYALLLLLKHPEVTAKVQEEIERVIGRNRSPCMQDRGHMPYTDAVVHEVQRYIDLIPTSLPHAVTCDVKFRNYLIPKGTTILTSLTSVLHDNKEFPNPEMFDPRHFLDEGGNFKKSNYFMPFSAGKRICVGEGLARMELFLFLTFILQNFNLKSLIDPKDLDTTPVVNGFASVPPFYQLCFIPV
Chain of Cytochrome P450 2C9 (P11712 whole entry): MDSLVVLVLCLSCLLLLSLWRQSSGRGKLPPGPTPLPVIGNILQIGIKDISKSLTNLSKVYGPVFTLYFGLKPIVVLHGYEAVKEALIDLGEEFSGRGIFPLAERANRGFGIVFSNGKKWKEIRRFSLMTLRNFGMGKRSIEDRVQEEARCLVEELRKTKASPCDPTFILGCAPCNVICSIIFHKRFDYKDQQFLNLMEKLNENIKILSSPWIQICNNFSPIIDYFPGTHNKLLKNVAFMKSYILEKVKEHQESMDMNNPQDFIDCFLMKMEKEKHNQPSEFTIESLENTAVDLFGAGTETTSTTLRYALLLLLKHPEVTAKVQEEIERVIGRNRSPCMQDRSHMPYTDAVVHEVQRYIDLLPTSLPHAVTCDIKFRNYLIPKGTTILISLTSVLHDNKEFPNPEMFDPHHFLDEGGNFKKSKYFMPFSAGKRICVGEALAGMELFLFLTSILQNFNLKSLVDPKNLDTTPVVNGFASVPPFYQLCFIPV
Chain of Cytochrome P450 2D6 (P10635 whole entry): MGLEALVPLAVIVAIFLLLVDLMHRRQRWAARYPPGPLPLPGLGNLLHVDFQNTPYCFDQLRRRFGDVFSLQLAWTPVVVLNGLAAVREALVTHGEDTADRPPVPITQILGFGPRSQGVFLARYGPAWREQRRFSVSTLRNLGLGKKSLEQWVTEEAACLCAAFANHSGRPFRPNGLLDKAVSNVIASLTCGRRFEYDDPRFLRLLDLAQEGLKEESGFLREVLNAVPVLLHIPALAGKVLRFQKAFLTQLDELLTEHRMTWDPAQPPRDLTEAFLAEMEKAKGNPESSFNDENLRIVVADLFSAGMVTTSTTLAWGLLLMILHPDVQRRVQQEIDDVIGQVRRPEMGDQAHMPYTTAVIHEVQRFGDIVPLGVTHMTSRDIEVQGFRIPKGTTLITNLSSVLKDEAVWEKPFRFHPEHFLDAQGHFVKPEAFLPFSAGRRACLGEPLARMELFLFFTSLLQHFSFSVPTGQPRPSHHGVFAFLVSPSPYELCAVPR
Chain of Cytochrome P450 3A4 (P08684 whole entry): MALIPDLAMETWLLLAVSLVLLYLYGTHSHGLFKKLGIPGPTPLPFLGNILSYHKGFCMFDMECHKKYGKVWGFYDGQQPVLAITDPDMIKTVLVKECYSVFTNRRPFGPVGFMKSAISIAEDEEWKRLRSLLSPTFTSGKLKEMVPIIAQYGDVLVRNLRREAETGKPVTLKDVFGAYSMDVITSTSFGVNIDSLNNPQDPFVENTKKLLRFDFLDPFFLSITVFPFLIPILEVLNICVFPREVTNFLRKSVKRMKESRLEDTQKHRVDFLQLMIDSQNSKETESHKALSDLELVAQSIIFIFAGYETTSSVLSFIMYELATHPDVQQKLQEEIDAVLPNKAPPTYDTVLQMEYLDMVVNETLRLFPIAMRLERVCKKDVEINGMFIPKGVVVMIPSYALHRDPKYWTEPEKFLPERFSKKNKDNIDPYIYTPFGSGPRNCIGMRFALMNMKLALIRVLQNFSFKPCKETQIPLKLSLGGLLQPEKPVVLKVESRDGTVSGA

The term IC50 denotes the concentration needed to halve the response being measured. A higher IC50 goes with lower potency. What is called EC50 is the concentration at which the effect is half-maximal. `O=C(O)/C=C/c1ccc(NC(=O)CNC(=O)c2ccc3c(c2)nc(-c2ccoc2)n3C2CCCCC2)cc1` came in with an IC50 in data set [1] of 280 nM. The EC50 in data set [2] turned out to be 41000 nM.

In data set [1], `C[C@H](NC(=O)c1ccc2c(c1)nc(-c1ccoc1)n2C1CCCCC1)C(=O)Nc1ccc(/C=C/C(=O)O)cc1` showed an IC50 of 360 nM. This compound also registered an EC50 in data set [2] of 25000 nM.

For orientation: logD means the decadic logarithm of the distribution of all forms, ionised or not, between an organic phase and buffer at a given pH. A word on the solubility: it is the dissolved amount per volume that the medium holds. On to `O=C(N[C@@H](Cc1c[nH]c2ccc(O)cc12)c1cscn1)c1ccc2c(c1)nc(-c1ccoc1)n2C1CCCCC1`, for which the IC50 in data set [1] is 300 nM; in [6], more than 30000 nM; in data set [7], 2300 nM; in data set [8], 2400 nM; in data set [9], 4000 nM; in data set [10], 400 nM. The EC50 in [2] is 1700 nM. In data set [3], this compound registered a logD of 3.8. In data set [4], this compound displayed a solubility of less than 0.07 µg/mL. Moreover, the t1/2 in data set [5] is 26 min.

Consider `CC[C@@H](NC(=O)c1ccc2c(c1)nc(-c1ccoc1)n2C1CCCCC1)C(=O)Nc1ccc(/C=C/C(=O)O)cc1`, for which, in data set [1], the concentration for half-maximal inhibition (IC50) worked out at 400 nM. Further, the response in data set [2] was half-maximal at 6500 nM (EC50).

For `CC(NC(=O)c1ccc2c(c1)nc(-c1ccoc1)n2C1CCCCC1)C(=O)Nc1ccc(-c2ccc(C(=O)O)o2)cc1` (racemic), in data set [1], the IC50 turned out to be 450 nM. Besides, the midpoint of the response in [2], the EC50, lay at 28000 nM.

`CC(NC(=O)c1ccc2c(c1)nc(-c1ccoc1)n2C1CCCCC1)C(=O)Nc1ccc(/C=C/C(=O)O)cc1` (racemic) registered an IC50 in data set [1] of 340 nM. A half-maximal response in data set [2] (EC50) required 13000 nM.

On to `Cn1c(-c2ccoc2)c(C2CCCCC2)c2ccc(C(=O)N[C@@H](Cc3c[nH]c4ccc(O)cc34)c3cscn3)cc21`, for which, in [1], the IC50 worked out at 100 nM. In addition, the half-maximal effective concentration (EC50) in data set [2] was determined as 50 nM.

Regarding `C[C@@H](NC(=O)c1ccc2c(c1)nc(-c1ccoc1)n2C1CCCCC1)C(=O)Nc1ccc2[nH]c(C(=O)O)cc2c1`, the midpoint of inhibition in data set [1], the IC50, lay at 60 nM. For the same compound, the EC50 in [2] was more than 40000 nM.

In data set [1], `CC(=O)COc1ccc(NC(=O)C(C)NC(=O)c2ccc3c(c2)nc(-c2ccoc2)n3C2CCCCC2)cc1` (racemic) registered a half-maximal inhibitory concentration (IC50) of 900 nM.

As for `CC(NC(=O)c1ccc2c(c1)nc(-c1ccoc1)n2C1CCCCC1)C(=O)Nc1ccc(CC(=O)O)cc1` (racemic), the IC50 in data set [1] came out at 1520 nM.

In [1], `CC(NC(=O)c1ccc2c(c1)nc(-c1ccoc1)n2C1CCCCC1)C(=O)Nc1ccc(C(=O)O)cc1` (racemic) displayed an IC50 of 390 nM. This compound registered an EC50 in data set [2] of 30000 nM.

`C[C@@H](NC(=O)c1ccc2c(c1)nc(-c1ccoc1)n2C1CCCCC1)C(=O)Nc1ccc2oc(C(=O)O)cc2c1` showed an IC50 in [1] of 90 nM. The compound further displayed an EC50 in data set [2] of more than 42000 nM.

As a reminder, the half-life is how long it takes for the measured level to halve. As for `C[C@@H](NC(=O)c1ccc2c(c1)nc(-c1ccoc1)n2C1CCCCC1)C(=O)Nc1ccc(/C=C/C(=O)O)cc1`, the half-maximal inhibitory concentration (IC50) in data set [1] was 130 nM; in [6], more than 30000 nM; in [7], more than 30000 nM; in data set [8], more than 30000 nM; in data set [9], more than 30000 nM; in data set [10] it was 12300 nM. Moreover, the midpoint of the response in data set [2], the EC50, lay at 6900 nM. The outcome in data set [11] and in data set [12] was inactive. This compound gave a logD in data set [3] of 2.2. In addition, the solubility in [4] is 171 µg/mL (≈ 325 µM). This compound came in with a half-life at 10 µM in data set [13] of 44 min.

For the compound `O=C(O)COc1ccc2[nH]cc(C[C@H](NC(=O)c3ccc4c(c3)nc(-c3ccoc3)n4C3CCCCC3)C(=O)O)c2c1`, half-maximal inhibition in data set [1] (IC50) required 19 nM.

`CC(NC(=O)c1ccc2c(c1)nc(-c1ccoc1)n2C1CCCCC1)C(=O)Nc1cccc(/C=C/C(=O)O)c1` (racemic) yielded a concentration for half-maximal inhibition (IC50) in data set [1] of 900 nM. This IC50 lies about 47-fold higher than the previous one.

In data set [1], `CC(NC(=O)c1ccc2c(c1)nc(-c1ccoc1)n2C1CCCCC1)C(=O)Nc1cccc(C(=O)O)c1` (racemic) had an IC50 of 1610 nM.
